“And” between values parts separate entries of the source, which are not always exact repeats. Equal entries are not always repeated.
Assays:
[1] = LPME with different supported liquid membrane liquids, 96 well format device, HPLC analysis; conditions: 0.1 M hydrochloric acid acceptor, 30 min
From the text: A mixture of acidic and basic drugs was used in this study, together with 0.1 M hydrochloric acid or 0.1 M sodium hydroxide as the acceptor phase.
Four different membrane forming small molecular weight organic liquids were investigated for selectivity differences, viz. hexyl ether, 4-nitrophenyl octyl ether, 1-octanol and 2-octyl-1-dodecanol. […] A cover plate of a 96 well block, carrying polypropylene fiber of 8 cm length, 600 μm inner diameter and 0.2 μm pore size, was dipped into each of these pure liquids for 5 seconds. These liquids were contained in different wells of a 96 well plate. The fibers in the cover plate were then washed by sonication in water for 15 seconds to remove excess material sticking to the fibers. A five component mixture of acidic and basic drugs was prepared from acetaminophen, naproxen, bamethane, quinidine and doxepin. Concentrations of the stock drug solutions were 1.0 mg/mL in each case. […] This is to maintain roughly the same level of analytical signal with each of these drugs. The mixture was diluted to 20 mL with water so that the concentrations of the three dilute drugs is in the range of 1 μg/mL, while those of the more concentrated drugs is in the range of 5 μg/mL. 500 μL of this diluted mixture of drugs is further diluted eight fold (to 4 mL) with water containing 250 μL of 2.0 M sodium hydroxide and used for extraction. […] The acceptor solution consisted of 25 μL of 0.1 M hydrochloric acid in each case. Extraction time with vibration was 30 min for each membrane liquid. The enriched acceptor solution was diluted three fold in each case and 25 μL of the resulting diluted solution used for analysis by high performance liquid chromatography on a Omnisphere C18 column using acetonitrile/pH 7.0 dipotassium hydrogen phosphate as mobile phase. A gradient from 5% acetonitrile to 40% was used to elute the strongly retained components in a reasonable time frame.

[2] = LPME of drugs from human plasma, urine and whole blood with vial format device, CZE analysis; type: physicochemical
[3] = LPME of eight basic drugs from water with phosphate buffer acceptors of different pH, CE analysis; type: physicochemical
[4] = LPME of seven basic drugs from water with different acidic acceptor phases, CE analysis; type: physicochemical
[5] = LPME of seven basic drugs with different hollow fibres (polypropylene, polysulfone); type: physicochemical
[6] = supported liquid membrane 1-octanol
[7] = supported liquid membrane 2-octyl-1-dodecanol
[8] = supported liquid membrane 4-nitrophenyl octyl ether
[9] = supported liquid membrane Hexyl Ether

In the case of CN(C)CCC=C1c2ccccc2COc2ccccc21 [doxepin], the Enrichment [1, 6] is reported as 58, the Enrichment [1, 7] is reported as 147 and the Enrichment [1, 8] is reported as 227. The Enrichment [1, 9] was 202.

In the case of CCOC(=O)C1(c2ccccc2)CCN(C)CC1 [pethidine], the Enrichment [2] is reported as 74%/7.4 and 72%/7.2, the Extraction efficiency [2] is reported as 74%/7.4 and 72%/7.2 and the “Enrichment (average of 3 replicates)” value ([3]; pH 2.5) is reported as 160. The “Enrichment (average of 3 replicates)” value ([3]; pH 3.5) was 147, the “Enrichment (average of 3 replicates)” value ([3]; pH 4.5) was 131 and the “Enrichment (average of 3 replicates)” value ([3]; pH 5.5) was 90. For the same compound, the “Enrichment (average of 3 replicates)” value ([3]; pH 6.5) was 34, the “Enrichment (average of 3 replicates)” value ([3]; pH 7.5) was 6 and the “Enrichment (average of 3 replicates)” value ([4]; pH 1.1) was 64. The “Enrichment (average of 3 replicates)” value ([4]; pH 1.2) was 139, the “Enrichment (average of 3 replicates)” value ([4]; pH 1.3) was 141 and the “Enrichment (average of 3 replicates)” value ([4]; pH 1.8) was 90. For the same compound, the “Enrichment (average of 3 replicates)” value ([4]; pH 1.9) was 106, the “Enrichment (average of 3 replicates)” value ([4]; pH 2.1) was 128 and 144 and the “Enrichment (average of 3 replicates)” value ([4]; pH 2.3) was 106. For the same compound, the “Enrichment (average of 3 replicates)” value ([4]; pH 2.5) was 98, the “Enrichment (average of 3 replicates)” value ([4]; pH 2.7) was 90 and the “Enrichment (average of 3 replicates)” value ([4]; pH 3) was 131. For the same compound, the “Enrichment (average of 3 replicates)” value ([4]; pH 3.1) was 115, the “Enrichment (average of 3 replicates)” value ([4]; pH 3.3) was 96 and 139 and the “Enrichment (average of 3 replicates)” value ([4]; pH 4.8) was 106 and 91. For the same compound, the “Enrichment (average of 3 replicates)” value [5] was 125 and 128 and 122.

C=C[C@H]1C[N@@]2CC[C@H]1C[C@@H]2[C@@H](O)c1ccnc2ccc(OC)cc12 [quinidine] gave an Enrichment [1, 6] of 100, an Enrichment [1, 7] of 20 and an Enrichment [1, 8] of 52. For the same compound, the Enrichment [1, 9] was 100.

Reference: US7468281B2, “Hollow fiber membrane sample preparation devices” (priority 2001, dated 2008)
